Like-named read-outs stand apart in the source and are kept apart here.

One data set concerns the target 5HT2 receptor (Rattus norvegicus, UniProt P14842). Description: cell-based. The method, then: Confluent cells are exposed for 24-30 hrs to 1.5 μCi [^3H]-myo-inositol (18.3 Ci/mmol) in 0.5 ml of serum-free medium. Cells are then rinsed once with DMEM/F-12 containing 10 mM LiCl prior to incubation with the test agent (or solvent as the control) in 1.0 ml of the same medium for 1 hr at 37° C., after which the medium is aspirated and 1 ml of cold 0.1 M formic acid added to stop the reaction. […] The eluate (4 ml) is collected, mixed with 15 ml scintillation fluid, and the total [^3H]-IPs determined by scintillation counting on a beta-counter.

In data set [1] the test system is lasered (hypertensive) eyes of conscious cynomolgus monkeys. Description: Acute IOP Response in Lasered (Hypertensive) Eyes of Conscious Cynomolgus Monkeys. The class given is in vivo, cynomolgus monkey. To be noted: topical, one 30 μL aliquot, dose (R)-DOI 100 μg, α-methylserotonin 250 μg, 5-methoxy-α-methyltryptamine 300 μg, serotonin 250 μg. The method, then: Acute IOP Response in Lasered (Hypertensive) Eyes of Conscious Cynomolgus Monkeys
Intraocular pressure (IOP) was determined with an Alcon Pneumatonometer after light corneal anesthesia with 0.1% proparacaine. Eyes were washed with saline after each measurement. After a baseline IOP measurement, test compound was instilled in one 30 μL aliquot to the right eyes only of nine cynomolgus monkeys. Vehicle was instilled in the right eyes of six additional animals. Subsequent IOP measurements were taken at 1, 3, and 6 hours.

The test system of the next data set is rabbit eye. Conditions: cited from earlier work.
A further data set deals with glaucomatous monkeys. Conditions: cited from earlier work.
For data set [2] the following is noted: man, dosed systemically; cited from earlier work.
A further data set deals with human subjects. To be noted: cited from earlier work.
The subject of a further data set is 5HT2 receptor subtypes. To be noted: 5HT2 agonist, rank order of subtypes; cited from earlier work.
Setting [3] is: rabbit, administered intracamerally.

5HT2 receptor, sequence (P14842 whole entry): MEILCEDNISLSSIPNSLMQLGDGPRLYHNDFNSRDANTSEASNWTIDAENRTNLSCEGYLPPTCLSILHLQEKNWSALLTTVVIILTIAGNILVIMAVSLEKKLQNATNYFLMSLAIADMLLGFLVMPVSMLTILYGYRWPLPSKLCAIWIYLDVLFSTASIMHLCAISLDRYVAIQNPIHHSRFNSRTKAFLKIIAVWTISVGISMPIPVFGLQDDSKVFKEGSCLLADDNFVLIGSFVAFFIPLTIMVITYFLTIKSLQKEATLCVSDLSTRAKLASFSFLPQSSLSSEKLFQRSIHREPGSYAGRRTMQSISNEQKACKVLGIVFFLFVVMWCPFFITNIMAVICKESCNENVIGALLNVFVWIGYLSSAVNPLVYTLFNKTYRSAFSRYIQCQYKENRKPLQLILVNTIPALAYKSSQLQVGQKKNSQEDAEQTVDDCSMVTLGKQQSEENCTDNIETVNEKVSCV

Usually Emax stands for the greatest response seen or fitted, relative to the assay's reference. For the compound `COc1ccc2[nH]cc(CC(C)N)c2c1` (stereo not drawn) [5-Methoxy-α-methyltryptamine, 5-methoxy-α-methyltryptamine], the maximal response (Emax) at 5HT2 receptor (A7R5, read-out: Efficacy (Emax, %)) was determined as 107%. Also, in data set [1], the “Percent IOP Reduction ± SEM, 1 hour after dose” value amounted to 21.6 ± 5.05%; the “Percent IOP Reduction ± SEM, 3 hours after dose” value came out at 35.2 ± 6.12%; the “Percent IOP Reduction ± SEM, 6 hours after dose” value was 33.4 ± 5.39%.

Turning to `NCCc1c[nH]c2ccc(C(N)=O)cc12` [5-carboxamidotryptamine], the “effect on intraocular pressure (IOP)” value with rabbit eye (rabbit, topically applied) is recorded as “raise intraocular pressure”.

Regarding `COc1ccccc1N1CCN(CCCNc2c(C)c(=O)n(C)c(=O)n2C)CC1` [5-methylurapidil], the “effect on IOP” value with glaucomatous monkeys is “lowered IOP”.

In the case of `CCCN(CCC)C1CCc2cccc(O)c2C1` (stereo not shown) [8-hydroxy DPAT], the “effect on IOP” value in the data set on rabbit eye (rabbits, route not stated) is reported as “lower IOP”.

Usually EC50 stands for the concentration at which the effect is half-maximal. Low readings indicate greater potency, high ones weaker potency. Compound `COc1cc(C[C@@H](C)N)c(OC)cc1I` [(R)-DOI, (R)4-iodo-2,5 dimethoxy-α-methyl-benzeneethanamine] displayed an EC50 on 5HT2 receptor of 277 ± 35 nM. In addition, in data set [1], the “Percent IOP Reduction ± SEM, 1 hour after dose” value worked out at 11.0 ± 4.98%; the “Percent IOP Reduction ± SEM, 3 hours after dose” value is given as 25.3 ± 2.97%; the “Percent IOP Reduction ± SEM, 6 hours after dose” value amounted to 34.4 ± 4.98%.

Turning to `COc1cc(CC(C)N)c(OC)cc1I` (stereo not shown) [DOI], the CNS side effects entry in data set [2] is reported as “cause central nervous system (CNS) side effects”.

As for `O=C(c1ccc(F)cc1)C1CCN(CCn2c(=O)[nH]c3ccccc3c2=O)CC1` [Ketanserin], the “effect on IOP” value with rabbit eye (rabbits, route not stated) is “lowers IOP”; in the data set with human subjects (man, route not stated), “lowers IOP”.

In the case of `c1ccc2c(c1)OC[C@H](CNCCCOc1ccc3c(c1)OCO3)O2` [MKC-242], in the data set on rabbit eye (rabbits, route not stated), the “effect on IOP” value is reported as “lower IOP”.

As for `CC[C@@H](CO)NC(=O)[C@@H]1C=C2c3cccc4c3c(cn4C)C[C@H]2N(C)C1` [Methysergide], the “effect on IOP” value in the data set with rabbit eye (rabbits, route not stated) is “lowered IOP”.

Turning to `COc1cccc(CCc2ccccc2OCC(CN(C)C)OC(=O)CCC(=O)O)c1` (stereo not shown) [Saprogrelate], the “effect on IOP” value in the data set with rabbit eye (rabbits, dosed topically or orally) is “lowers IOP”; with human subjects (man, dosed topically or orally) it was “lowers IOP”.

Turning to `NCCc1c[nH]c2ccc(O)cc12` [Serotonin, 5-hydroxytryptamine], in the data set with rabbit eye (setting [3]), the blood-aqueous barrier result is listed as “caused breakdown of the blood-aqueous barrier” and the “effect on IOP” value was “increase in IOP”. In addition, in data set [1], the “Percent IOP Reduction ± SEM, 1 hour after dose” value is given as 13.3 ± 5.31%; the “Percent IOP Reduction ± SEM, 3 hours after dose” value was found to be 18.0 ± 5.12%; the “Percent IOP Reduction ± SEM, 6 hours after dose” value was found to be 2.0 ± 7.39%.

Take `CNCCC(Oc1ccc(C(F)(F)F)cc1)c1ccccc1` (stereo not shown) [fluoxetine]: the “effect on IOP” value in the data set with human subjects (human subjects, oral administration) is “raises IOP”.

Turning to `CC(N)Cc1c[nH]c2ccc(O)cc12` (stereo not drawn) [α-Methylserotonin, α-methyl-serotonin], the receptor subtype selectivity in the data set on 5HT2 receptor subtypes is 5HT2B>5HT2C>5HT2A. Besides, in data set [1], the “Percent IOP Reduction ± SEM, 1 hour after dose” value is reported as 14.2 ± 4.39%; the “Percent IOP Reduction ± SEM, 3 hours after dose” value was 25.8 ± 5.16%; the “Percent IOP Reduction ± SEM, 6 hours after dose” value was found to be 30.8 ± 7.72%.

(Values after US6664286B1, “Serotonergic 5ht2 agonists for treating glaucoma” (Alcon Manufacturing, Ltd., priority 1998, dated 2003).)
